species on record: Rattus norvegicus; assay: The ability to inhibit the 5-HT-induced contraction of isolated rat fundus muscle was determined; assay type: functional; details: read-out: pA2 (converted)

In order of falling Kb:
1. COc1ccc2c(CCN(C)C)c[nH]c2c1  1.7 µM
2. CSc1ccc2c(CCN(C)C)c[nH]c2c1  1.2 µM
3. CN(C)CCc1c[nH]c2cc3c(cc12)OCO3  1.02 µM
4. CN(C)CCc1c[nH]c2ccccc12 [N,N-DIMETHYLTRYPTAMINE]  1 µM
5. COc1cccc2[nH]cc(CCN(C)C)c12  0.676 µM
6. CSc1cccc2[nH]cc(CCN(C)C)c12  0.617 µM
7. CN(C)CCc1c[nH]c2ccc3c(c12)OCO3  0.398 µM
8. CSc1ccc2[nH]cc(CCN(C)C)c2c1  0.145 µM
9. COc1ccc2[nH]cc(CCN(C)C)c2c1 [MEBUFOTENIN]  0.0832 µM

Source: ChEMBL document CHEMBL1121976, “Structure-activity relationships for hallucinogenic N,N-dialkyltryptamines: photoelectron spectra and serotonin receptor affinities of methylthio and methylenedioxy derivatives” (J Med Chem, 1982)
